# Laboratory results reported in patent US20150352207A1, “USE OF ANTIBODIES AGAINST ICAM-1 IN COMBINATION WITH AN ANTI CANCER DRUG IN THE TREATMENT OF PATIENTS” (BIOINVENT INTERNATIONAL AB, priority 2013, published 2015).
# B1: 297Q B11: FcγR-binding deficient mutant IgG1 (N297Q IgG1) isotype switch variant of B11 (antibody, V domains shown)
# VH: EVQLLESGGGLVQPGGSLRLSCAASGFTFSNAWMSWVRQAPGKGLEWVAFIWYDGSNKYYADSVKGRFTISRDNSKNTLYLQMNSLRAEDTAVYYCARYSGWYFDYWGQGTLVTVSS
# VL: QSVLTQPPSASGTPGQRVTISCTGSSSNIGAGYDVHWYQQLPGTAPKLLIYDNNNRPSGVPDRFSGSKSGTSASLAISGLRSEDEADYYCQSYDSSLSAWLFGGGTKLTVLG
# B2: IgG4 B11: human IgG4 isotype switch variant of B11 (antibody, V domains shown)
# VH: B1 VH
# VL: B1 VL
# What was measured:
# [1] = test system: ICAM-1 on MM cells (CD38+/mCD45-); assay: ICAM-1 expression on myeloma cells from treated mice (disseminated RPMI-8226 model, flow cytometry); assay type: in vivo, SCID mice; settings: tumor cells isolated from mice treated with standard of care therapies
# Method: Organs for FACS analysis were collected at scarification of mice, and cells from tissues were prepared by mechanistic dissociation and dispase/collagenase enzymatic digestion (Gibco, France). Cells were stained with anti-human CD38 antibody (PerCP-Cy5, Becton Dickinson), an anti-mouse CD45 (PE, Becton Dickinson) and human ICAM-1 (B11 IgG1 AF647, BioInvent) and incubated in the dark for 15 min at room temperature. After the incubation, cells were washed twice and the surface fluorescence of cells was analyzed with a flow cytometer apparatus (LSRII) at the Flow Cytometry Facility of the University of Burgundy.
# 200 μl containing 10×10^6 of RPMI 8226 tumour cells was intravenously injected into the caudal vein of female SCID mice. The mice had been subjected to a whole body irradiation of mice (1.8 Gy, ^60Co, BioMEP) 24 to 72 hours prior to cell injection. At D1, tumor injected mice were randomized according to their individual body weight. All treatment started day 5 after tumor cell administration except for ALKERAN®, which started at day 10. All treatments were injected in a dose volume of 10 ml/kg/inj. Mice received one of the following treatments:
# The health status and behavior of mice was recorded every day and body weight of mice was recorded twice a week. […] Upon termination, bone marrow, spinal cord, adrenal glands and kidneys were collected and examined for ICAM-1 expression on tumor cells. To distinguish cells of human versus murine origin, an anti-mouse CD45 mAb was used CD45. […] In addition, cells were stained with AF647 conjugated anti ICAM-1 mAb and thereafter analyzed in a FACS LSRII. Bone marrow was mechanically dissociated to a single cell suspension whereas adrenal glands, kidneys and spinal cord cells were prepared using a combination of mechanistic dissociation and dispase/collagenase digestion (Gibco, France). Prior to the experiment, dispase and collagenase treatments were shown not to effect ICAM-1 levels on MM cell lines.
# [2] = test system: HUVEC and HMVEC endothelial cells; assay: PCD in normal ICAM-1 expressing endothelial cells; assay type: cell-based; settings: resting or activated HUVEC/HMVEC
# Method: Target cells were seeded in 96-well culture plates at a density of 2×10^6 cells/mL culture medium. Titrated concentrations of IgG1 B11 or different negative and positive control antibodies were added to the cells, in the absence or presence of anti-human Fab fragment (Jackson ImmunoResearch) for cross-linking. The cells were then incubated for 16 hours at 37° C. in a humidified atmosphere of 5% CO2. The cells were harvested and stained for Annexin V-488/Propidium Iodide (Invitrogen, Sweden) and analysed using flow cytometer (FACS Calibur, BD Bioscience).
# ARH-77 cells [3] = assay: Disseminated scid/ARH-77 model of multiple myeloma; assay type: in vivo, scid mice; settings: i.v. on Days 7, 10, 13, 16; antibody 2 mg/kg, bortezomib 0.5 mg/kg; vs control treatment
# Method: ARH-77 cells or RPMI-8226 were injected intravenously into the SCID mice. (A) ARH-77 model. Animals received intravenous injections with antibody at 2 mg/kg or bortezomib (Velcade) at 0.5 mg/kg on Days 7, 10, 13, and 16 (as indicated by arrows in the graph). (B) RPMI-8226-model. B11 or control mAb was administered i.v at 2 mg/kg, twice weekly for 8 weeks, bortezomid, at 1 mg/kg, once weekly for 8 weeks, lenalidomide p.o with 2 mg/kg for 2 cycles consisting of 5 days of treatment and 2 days of wash out, melphalan i.v at 3 mg/kg, once weekly for 8 weeks, and dexamethasone (DXH) at 6 mg/kg/inj 3 times/week for 2 consecutive weeks. There were 6-10 mice per treatment group. Statistical significance was calculated using Log-rank Graphpad Prism software and determined at ***p<0.001. (C) To study the ICAM-1 level on human cells, the cells from different organs were stained and gated for CD38+/mCD45−/B11+. Left panel indicates the percentage of B11 positive cells in CD38+/mCD45 population and right panel the mean fluorescent intensity of the positive cells.
# The anti-myeloma effect of B11 was examined in a disseminated model of multiple myeloma. The early and advanced disseminated model of multiple myeloma was performed at Oncodesign, Dijon, France. Briefly: 1×10^6 (early) or 5×10^6 (advanced) ARH-77 tumor cells in 200 μL of RPMI 1640 were injected intravenously (i.v) into the caudal vein of female scid mice (D0). Tumor cell injections were performed twenty four to forty eight hours after a whole body irradiation of mice (1.8 Gy, ^60Co, INRA, BRETENNIERES). The treatment was started at D5 RPMI-8226 model or D7 (ARH-77 model) […]. B11 or control mAb was administered i.v. at 2 mg/kg, twice weekly for 8 weeks, bortezomib, at 1 mg/kg, once weekly for 8 weeks, lenalidomide p.o with 2 mg/kg for 2 cycles consisting of 5 days of treatment and 2 days of wash out, melphalan i.v. at 3 mg/kg, once weekly for 8 weeks, and dexamethasone at 6 mg/kg 1 injected 3 times a week for 2 consecutive weeks.
# The disseminated model of scid/ARH-77 is a well-established experimental model that resembles human multiple myeloma disease progression and disease manifestation in many respects (33). We utilized this model to further characterize IgG B11 anti-myeloma activity (FIG. 6A). Intravenous injection of irradiated scid mice with 1×10^6 ARH-77 cells was previously shown to result in their dissemination and establishment in mouse bone-marrow, and resulting osteolytic bone-lesions and hypercalcemia, and ultimately, in animal paralysis or difficulty of breathing at which time animals were immediately sacrificed. […]
# [4] = test system: ICAM-1 expressing tumor cell lines; assay: Complement-dependent cytotoxicity (CDC) in tumor cell lines; assay type: cell-based; settings: panel of ICAM-1 expressing tumor cell lines
# Method: Target cells were harvested and incubated in RPMI medium with antibodies at 5 μg/mL or at titrated concentrations between 0.01-100 μg/mL for 60 min on ice. Cells were thereafter washed and resuspended in cold medium before dispension into flow cytometry tubes. Treatments were performed in triplicates. Human serum, normal or heat-inactivated, (Sigma, Sweden) was added to tubes and the samples were incubated for 2 h at 37° C. After completed incubation ToPo-Pro-3 was added at a final concentration of 0.3 μM and cells were analyzed for membrane permeabilization using flow cytometry.
# ARH-77 tumors = assay: Advanced (established, palpable tumors) scid/ARH-77 xenograft model; settings: IgG B11 effective even at 100-fold lower dose (0.2 mg/kg) than rituximab
# Method: Mice were anaesthetized with a mixture of sevofluran and oxygen prior to myeloma cell inoculation and 1-5×10^6 myeloma cells were then subcutaneously injected in a volume of 100 μl into the left flank. Treatment with antibodies by intraperitonial (i.p.) injections was started either the day after cell inoculation (prophylactic model) or when tumors reached a size of approximately 100 mm^3 (established model). Antibodies were administrated in PBS in a total volume of 200 μL. Treatment with PBS or isotype control was used as control. Tumors were measured with a digital calliper and the tumor volumes were calculated according to formula: width^2×length×0.52. Animals were sacrificed when the tumor sizes reached the ethical limit of 1.5 cm. Surviving mice were sacrificed after a maximum of 5 months. Blood samples collected from the vena cava were centrifuged at 2500 g for 15 min to obtain serum and the samples were stored at −20° C. Tumors were removed for immunohistochemistry, snap frozen and were kept at −85° C.
# ARH-77 cells [5] = assay: Subcutaneous scid/ARH-77 xenograft, treatment from the day after cell inoculation (prophylactic model); settings: for anti-tumor activities of IgG B11 isotype switch variants (rank order): twice weekly treatment, s.c. ARH-77
# Method: Tumor cells were injected subcutaneously into the left flank of SCID mice. Mice received twice-weekly intraperitoneal injections with B11, control antibody or rituximab at doses of 20, 2 and/or 0.2 mg/kg commencing one day after tumor cell inoculation. There were 8 to 10 animals per treatment group. (A) Tumor volume as a function of antibody dose. (B) Kaplan-Meier survival graph as a function of antibody dose. […] Statistical significance was calculated relative to control antibody treatment using Kruskal-Wallis Test (Nonparametric ANOVA) with Dunn's Multiple Comparisons Test (tumor volume) or the log-rank test (mouse survival) using Graphpad Instat or Prism software, respectively. Statistical significance was considered for *p<0.05, **p<0.01, and ***p<0.001.
# Tumor cells were injected subcutaneously into the left flank of SCID mice. Mice received twice-weekly intraperitoneal injections with B11 at doses of 0.02-20 mg/kg commencing day after tumor cell inoculation. There were 8-10 animals per treatment group. (A) Tumor volume as a function of antibody dose. (B) Kaplan-Meier survival graph as a function of antibody dose. Statistical significance was calculated relative to control antibody treatment using Kruskal-Wallis Test (Nonparametric ANOVA) with Dunn's Multiple Comparisons Test (tumor volume) or the log-rank test (mouse survival) using Graphpad Instat or Prism software, respectively. Statistical significance was considered for *p<0.05, **p<0.01, and ***p<0.001. Graphs illustrate representative experiments out of several performed.
# (A) ARH-77 cells were injected subcutaneously into the left flank of SCID mice (n=8 per group). Mice were treated with the different B11 isotypes twice weekly. […] Statistical significance was calculated relative to control antibody treatment using Kruskal-Wallis Test (Nonparametric ANOVA) with Dunn's Multiple Comparisons Test. Statistical significance was considered for *p<0.05, **p<0.01, and ***p<0.001.
# Mice were anaesthetized with a mixture of sevofluran and oxygen prior to myeloma cell inoculation and 1-5×10^6 myeloma cells were then subcutaneously injected in a volume of 100 μl into the left flank. Treatment with antibodies by intraperitonial (i.p.) injections was started either the day after cell inoculation (prophylactic model) or when tumors reached a size of approximately 100 mm^3 (established model).
# [6] = test system: B lymphoma cell line (CL-01); assay: Antibody-dependent cell-mediated cytotoxicity (ADCC) with natural killer effector cells; assay type: cell-based; settings: human Natural Killer effector cells
# From the text: Buffy coats from human donors (ordered through Blodcentralen, Lund) were used to isolate peripheral blood mononuclear cells (PBMCs), and subsequently NK cells. Briefly, peripheral blood components were separated using Ficoll Paque PLUS (Amersham Biosciences, Sweden) in LeucoSep tubes (Greiner Bio-One). The PBMC fraction was removed and thoroughly washed in ice-cold DPBS (Invitrogen), before magnetic labeling and separation of the NK cell population using positive or negative NK cell isolation kits and MACS LS columns (Miltenyi Biotec). The purity of the obtained NK cell fractions was analyzed using flow cytometry, after staining with α-CD56 antibodies (BD Biosciences). Target cells were harvested, and incubated in medium with or without the respective antibodies (2 μg/mL) for 60 min on ice. Cells were thereafter washed and resuspended in cold medium before dispension into FACS tubes. Subsequently, isolated NK cells were diluted in ADCC medium and dispensed together with the respective antibody-coated target cells at varying effector/target cell ratios (40:1, 20:1, 5:1 and 1:1). All experiments were performed in triplicates. After completed incubation ToPo-Pro-3 dye and counting beads (Invitrogen) were added and cells were analyzed for membrane permeabilization using flow cytometry.
# [7] = Serum antibody levels of treated xenografted mice (ELISA); assay type: in vivo; settings: Dose 2 mg/kg; serum at end of experimentation
# Method: We next performed a dose-titration experiment to establish IgG B11 in vivo potency and the minimal dose achieving maximal anti-tumor activity, using the scid/ARH-77 model system. […] Mouse serum antibody trough concentrations were determined by ELISA at the end of experimentation. Trough antibody concentrations were then plotted against percent of maximal in vivo anti-tumour activity, and against percent of maximal ICAM-1 receptor occupancy and tumour cell PCD at corresponding antibody concentrations in vitro (FIGS. 3C, 3D, 3E, 3F and 3G). Strikingly, a near perfect correlation between antibody concentration and in vitro tumour cell receptor occupancy, in vitro tumor cell PCD, and in vivo anti-tumour activity was observed, consistent with ICAM-1 dependent direct cell cytotoxicity underlying in vivo anti-tumour activity.
# human FcγRIIIa = molecular target: T1, human FcγRIIIa (Homo sapiens, UniProt P08637); assay: B11 isotype variant binding to FcγR (Biacore), human FcγRIIIa
# T1 construct: made in house; host or cells: HEK293E (transient, adherent)
# T1 sequence (P08637 17-254): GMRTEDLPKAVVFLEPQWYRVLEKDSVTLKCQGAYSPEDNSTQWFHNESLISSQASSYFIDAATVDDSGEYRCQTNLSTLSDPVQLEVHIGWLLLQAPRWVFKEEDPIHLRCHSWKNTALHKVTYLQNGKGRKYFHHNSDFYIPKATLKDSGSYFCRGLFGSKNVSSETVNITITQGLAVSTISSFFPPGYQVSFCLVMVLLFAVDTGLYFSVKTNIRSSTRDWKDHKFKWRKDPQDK
# Method: His-tagged human FcγRIIIa or mouse FcγRIV were expressed transient in adherent HEK293E cells, purified using Ni-NTA chromatography and characterized using SDS-PAGE and/or Biacore. Surface plasmon resonance (SPR) measurements were performed using a Biacore 3000 instrument. Goat α-human-F(ab)′2 F(ab)′2 fragment (Jackson laboratories) was immobilised with a CM-5 chip using a standard amine coupling protocol. IgG1 B11, IgG4 B11, or 297Q B11 were diluted to 15 and 60 μg/mL respectively and added to the surface at […] for 3 min. His tagged human FcγRIIIa or mouse FcγRIV were pre-incubated with an α-HIS antibody (R&D Systems) at a 2:1 molar ratio before addition to the chip surface, 30 μL/min, 1 min. After each cycle the surface was regenerated twice with glycine buffer pH 1.7.
molecule,measurement,setting,value
Nc1cccc2c1CN(C1CCC(=O)NC1=O)C2=O (stereo not drawn) [lenalidomide],ICAM-1 expression on tumor cells after treatment,[1]; listed as Revlimid®,"still expressed at unchanged, high levels"
same,ICAM-1 expression on tumor cells after treatment,[1]; listed as revlimid,retained
N[C@@H](Cc1ccc(N(CCCl)CCCl)cc1)C(=O)O [melphalan],ICAM-1 expression on tumor cells after treatment,[1]; listed as AIKERAN®,"still expressed at unchanged, high levels"
same,ICAM-1 expression on tumor cells after treatment,[1]; listed as alkeran,retained
"CC(=O)O[C@H]1C(=O)[C@@]2(C)[C@H]([C@H](OC(=O)c3ccccc3)[C@]3(O)C[C@H](OC(=O)[C@H](O)[C@@H](NC(=O)c4ccccc4)c4ccccc4)C(C)=C1C3(C)C)[C@]1(OC(C)=O)CO[C@@H]1C[C@@H]2O [paclitaxel, reference compound]",programmed cell death of normal endothelial cells,[2],induced significant endothelial cell and B cell programmed cell death
"CC(C)C[C@H](NC(=O)[C@H](Cc1ccccc1)NC(=O)c1cnccn1)B(O)O [bortezomib, reference compound]",animal survival,ARH-77 cells [3],did not significantly enhance animal survival
same,time to symptomatic disease onset,ARH-77 cells [3],insignificantly delayed disease onset
same,ICAM-1 expression on tumor cells after treatment,[1]; listed as VELCADE®,"still expressed at unchanged, high levels"
same,ICAM-1 expression on tumor cells after treatment,[1]; listed as bortesomib,retained
rituximab [reference compound],induction of CDC,[4],effectively induced CDC
same,animal survival,ARH-77 tumors,incapable of reducing tumor growth or promoting animal survival
same,tumor growth,ARH-77 tumors,incapable of reducing tumor growth
same,tumor growth,"ARH-77 cells [5]; 20 mg/kg twice weekly i.p., commencing one day after tumor cell inoculation",significant anti-tumor activity albeit less efficaciously so compared to IgG B11
B1,ADCC of target tumor cells,[6],did not mediate ADCC of target tumor cells
same,In vivo IgG Levels,[7],9.6 ± 3. μg/mL
same,binding to human FcγRIIIa,human FcγRIIIa,did not bind to human FcγRIIIa
same,anti-tumor activities of IgG B11 isotype switch variants (rank order),ARH-77 cells [5],increased in the order of IgG1N297Q<IgG4<IgG1
B2,ADCC of target tumor cells,[6],did not mediate ADCC of target tumor cells
same,In vivo IgG Levels,[7],13 ± 3.1 µg/mL
same,binding to human FcγRIIIa,human FcγRIIIa,did not bind to human FcγRIIIa
same,anti-tumor activities of IgG B11 isotype switch variants (rank order),ARH-77 cells [5],increased in the order of IgG1N297Q<IgG4<IgG1
